Data reported in patent US11135209B2, “Compositions and methods for inhibiting protein kinases” (UNIVERSITY OF HOUSTON SYSTEM, priority 2017, dated 2021).

Experiments:
[1] = target: T1, human ALK2 (Homo sapiens, UniProt Q04771); experiment: Activin-Like Kinase 2 (ALK2) enzyme assay; type: biochemical
T1 sequence (Q04771 21-509): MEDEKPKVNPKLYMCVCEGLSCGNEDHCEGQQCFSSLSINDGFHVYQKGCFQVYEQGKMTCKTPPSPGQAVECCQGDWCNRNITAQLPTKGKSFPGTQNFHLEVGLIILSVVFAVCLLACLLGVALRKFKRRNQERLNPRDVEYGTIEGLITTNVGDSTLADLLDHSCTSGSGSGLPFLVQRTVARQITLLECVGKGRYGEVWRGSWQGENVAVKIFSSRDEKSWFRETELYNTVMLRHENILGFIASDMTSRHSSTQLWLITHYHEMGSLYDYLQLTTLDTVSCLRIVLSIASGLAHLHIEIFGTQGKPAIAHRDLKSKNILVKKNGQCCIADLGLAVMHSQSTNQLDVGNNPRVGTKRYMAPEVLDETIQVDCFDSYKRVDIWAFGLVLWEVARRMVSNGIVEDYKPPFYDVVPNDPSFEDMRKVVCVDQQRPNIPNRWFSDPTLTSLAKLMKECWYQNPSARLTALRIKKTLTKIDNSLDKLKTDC
Method: Activin-Like Kinase 2 (ALK2) Enzyme Assay
Enzyme inhibitory activity was evaluated in a standard kinase enzyme assay by incubating human ALK2 with the protein substrate casein (1 mg/mL) and γ-^33ATP (10 μM) in the presence of various concentrations of test compounds (10 nM-100 μM). After 30 min the amount of ^33P-casein was determined.

[2] = target: Recombinant RIPK2 protein (Homo sapiens, UniProt O43353); experiment: Receptor Interacting Protein Kinase 2 (RIPK2) enzyme assay (ADP-Glo); type: biochemical; conditions: for inhibition at 0.5 µM: Conc. 500 nM
Method: Receptor Interacting Protein Kinase 2 (RIPK2) Enzyme Assay
Recombinant RIPK2 protein (20 ng per reaction) is diluted in the reaction buffer consisting of 40 mM Tris (pH 7.5); 20 mM MgCl2; 0.1 mg/ml BSA; 50 μM DTT. Diluted protein is added to low volume white 384 well plates (2 μL/well). Inhibitors are diluted in reaction buffer (final 25% DMSO), 1 μL is added to each well and incubated 5 min at room temperature. Reactions are initiated by the addition of 2 μL of 100 μM ATP and 1 mg/ml RS repeat peptide (SignalChem) in the reaction buffer. Plates are sealed with plastic coverslips and incubated at room temperature for 2 h. Reactions are stopped by the addition of 5 μL of ADP-Glo reagent (Promega) and ADP generation reaction is performed for 40 min at room temperature. Luminescence signal is generated by the addition of 10 μL of Kinase detection reagent (Promega) for 30 min at room temperature Luminescence signals are determined using appropriate luminescence plate-reader (typical integration time 0.3-1 sec). To calculate percent inhibition, average background signal is subtracted from test well and maximal signal wells. Inhibition, %=(1−(test signal/maximal signal))*100. The percent inhibition at a specified concentration is determined or IC50 values are calculated based on a dose range of inhibitor concentrations using non-linear regression in GraphPad Prism software.

[3] = tested on: NOD2 cellular signaling in HEK-Blue cells expressing human NOD2; experiment: NOD2 cell signaling assay (HEK-Blue, NFkB-SEAP reporter, L18-MDP stimulated); type: cell-based; conditions: read-out: IC50 (nM) HEKBlue RIPK2
Method: NOD2 Cell Signaling Assay.
HEK-Blue cells expressing human NOD2 and NFkB-SAEP reporter (Invivogen) are seeded into 96 well clear plates at 7.5×10^3 cells per well in 100 μL of DMEM media supplemented with 10% FBS and 1% antibiotic-antimycotic mix. Cells are allowed to attach for 48 h in 5% CO2 tissue culture incubator at 37° C. On the morning of the experiment, media in the wells is replaced with 100 pt of HEK-Blue detection media (Invivogen). Cells are treated with the inhibitors, diluted in DMSO (0.5 μL per well) for 15 min in 5% CO2 tissue culture incubator at 37° C. After that, cells are stimulated by the addition of 1 ng/well L18-MDP (Invivogen). Cells are incubated in 5% CO2 tissue culture incubator at 37° C. for 8 h and absorbance, corresponding to the SEAP in the media, is determined in Wallac3V plate reader (Perkin Elmer). Inhibition, %=(1−((sample signal-unstimulated and DMSO treated cells)/(L18-MDP stimulated and DMSO treated cells−unstimulated and DMSO treated cells)))*100. IC50 values are calculated based on a dose range of inhibitor concentrations using non-linear regression in GraphPad Prism software.

Sequence of Recombinant RIPK2 protein (O43353 whole entry, species assumed): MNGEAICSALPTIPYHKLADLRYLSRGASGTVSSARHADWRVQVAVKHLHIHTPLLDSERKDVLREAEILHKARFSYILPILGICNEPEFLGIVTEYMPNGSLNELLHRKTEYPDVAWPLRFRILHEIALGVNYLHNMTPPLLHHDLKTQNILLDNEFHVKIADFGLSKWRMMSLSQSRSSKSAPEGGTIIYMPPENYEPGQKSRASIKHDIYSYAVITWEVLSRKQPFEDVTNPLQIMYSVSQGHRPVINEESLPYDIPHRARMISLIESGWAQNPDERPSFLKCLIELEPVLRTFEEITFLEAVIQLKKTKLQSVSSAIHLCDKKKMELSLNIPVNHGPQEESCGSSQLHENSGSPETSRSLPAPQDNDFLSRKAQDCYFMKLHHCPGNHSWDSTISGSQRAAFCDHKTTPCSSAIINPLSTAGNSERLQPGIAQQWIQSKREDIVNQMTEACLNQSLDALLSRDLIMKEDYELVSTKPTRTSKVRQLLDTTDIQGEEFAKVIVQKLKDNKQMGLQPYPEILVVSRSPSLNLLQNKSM

SMILES	IC50 [1] [nM]	IC50 [2] [nM]	inhibition at 0.25 µM ([2]; Conc. 250 nM) [%]	inhibition at 0.5 µM [2] [%]	IC50 [3] [nM]
CCCS(=O)(=O)Nc1cc(F)cc(-c2cc(-c3ccc(N4CCNCC4)cc3)cnc2N)c1 [CSLP38, N-(3-(2-Amino-5-(4-(piperazin-1-yl)phenyl)pyridin-3-yl)-5-fluorophenyl)propane-1-sulfonamide]	> 10	> 10	–	–	> 100
CCCS(=O)(=O)Nc1cc(-c2cc(-c3ccc(N4CCNCC4)cc3)cnc2N)cc(OCC)c1OCC [CSLP49]	> 100000	> 1000	–	–	> 1000
CCCS(=O)(=O)Nc1cc(-c2cc(-c3ccc(S(C)(=O)=O)cc3)cnc2N)ccc1OC [CSLP34]	> 10000	> 100	–	–	> 1000
CCCS(=O)(=O)Nc1cc(-c2cc(-c3ccc(N4CCNCC4)cc3)cnc2N)ccc1OC [CSLP18]	> 1000	> 10	–	–	> 100
CCCS(=O)(=O)N1CCc2ccc(-c3cc(-c4ccc(N5CCNCC5)cc4)cnc3N)cc21 [CSLP46, 5-(4-(Piperazin-1-yl)phenyl)-3-(1-(propylsulfonyl)indolin-6-yl)pyridin-2-amine]	> 100000	> 100	–	–	> 1000
COc1cc(NS(=O)(=O)CC(C)C)cc(-c2cc(-c3ccc(N4CCNCC4)cc3)cnc2N)c1 [CSLP12, N-(3-(2-Amino-5-(4-(piperazin-1-yl)phenyl)pyridin-3-yl)-5-methoxyphenyl)-2-methylpropane-1-sulfonamide]	> 1	> 10	–	–	> 100
CCCS(=O)(=O)Nc1cc(-c2cc(-c3ccc(N4CCNCC4)cc3)cnc2N)cc2c1OCCO2 [CSLP52, N-(7-(2-Amino-5-(4-(piperazin-1-yl)phenyl)pyridin-3-yl)-2,3-dihydrobenzo[b][1,4]dioxin-5-yl)propane-1-sulfonamide]	> 100000	> 100	–	–	> 1000
CCCS(=O)(=O)Nc1cc(-c2cc(-c3ccc(N4CCNCC4)cc3)cnc2C)cc(F)c1OC [CSLP53, N-(3-Fluoro-2-methoxy-5-(2-methyl-5-(4-(piperazin-1-yl)phenyl)pyridin-3-yl)phenyl)propane-1-sulfonamide]	> 100000	> 1000	–	–	> 1000
COc1cc(NS(C)(=O)=O)cc(-c2cc(-c3ccc(N4CCNCC4)cc3)cnc2C)c1 [CSLP2, N-(3-Methoxy-5-(2-methyl-5-(4-(piperazin-1-yl)phenyl)pyridin-3-yl)phenyl)methanesulfonamide]	> 10	> 100	39	–	> 1000
CCCS(=O)(=O)Nc1cc(-c2cc(-c3cccc(N4CCNCC4)c3)cnc2N)cc(F)c1OC [CSLP58, N-(5-(2-Amino-5-(3-(piperazin-1-yl)phenyl)pyridin-3-yl)-3-fluoro-2-methoxyphenyl)propane-1-sulfonamide]	> 100	> 10	–	–	> 10
CCCS(=O)(=O)Nc1cc(-c2cc(-c3ccc(N4CCNCC4)cc3)cnc2N)cc(OC)c1OC [CSLP43, N-(5-(2-Amino-5-(4-(piperazin-1-yl)phenyl)pyridin-3-yl)-2,3-dimethoxyphenyl)propane-1-sulfonamide]	> 10	> 10	–	–	> 1
CCCS(=O)(=O)N1CCOc2c(F)cc(-c3cc(-c4ccc(N5CCNCC5)cc4)cnc3N)cc21 [CSLP57, 3-(8-Fluoro-4-(propylsulfonyl)-3,4-dihydro-2H-benzo[b][1,4]oxazin-6-yl)-5-(4-(piperazin-1-yl)phenyl)pyridin-2-amine]	> 1000	> 100	–	–	> 100
CCCS(=O)(=O)Nc1ccc(-c2cc(-c3ccc(N4CCNCC4)cc3)cnc2C)cc1OC [CSLP1, N-(2-methoxy-4-(2-methyl-5-(4-(piperazin-1-yl)phenyl)pyridin-3-yl)phenyl)propane-1-sulfonamide]	> 100000	–	–	< 0	> 1000
CCCS(=O)(=O)Nc1cc(OC)cc(-c2cc(-c3ccc(N4CCNCC4)cc3)cnc2C)c1 [CSLP10, N-(3-Methoxy-5-(2-methyl-5-(4-(piperazin-1-yl)phenyl)pyridin-3-yl)phenyl)propane-1-sulfonamide]	> 10	> 100	–	84	> 1000

Now from value to compound, other results behind:

IC50 [1] [nM]	IC50 [2] [nM]	inhibition at 0.25 µM ([2]; Conc. 250 nM) [%]	inhibition at 0.5 µM [2] [%]	SMILES	IC50 [3] [nM]
> 100	> 100	–	–	CCCS(=O)(=O)Nc1cc(-c2cc(-c3ccc(N4CCNCC4)cc3)cnc2N)cc(Cl)c1C [CSLP40, N-(5-(2-Amino-5-(4-(piperazin-1-yl)phenyl)pyridin-3-yl)-3-chloro-2-methylphenyl)propane-1-sulfonamide]	> 1000
> 100	> 100	–	–	CCCS(=O)(=O)Nc1cc(-c2cc(-c3ccc(N4CCNCC4)cc3)cnc2N)cc(C)c1C [CSLP45, N-(5-(2-Amino-5-(4-(piperazin-1-yl)phenyl)pyridin-3-yl)-2,3-dimethylphenyl)propane-1-sulfonamide]	> 100
> 1	> 1	–	–	COc1cc(NS(=O)(=O)c2ccccc2)cc(-c2cc(-c3ccc(N4CCNCC4)cc3)cnc2N)c1 [CSLP20, N-(3-(2-Amino-5-(4-(piperazin-1-yl)phenyl)pyridin-3-yl)-5-methoxyphenyl)benzenesulfonamide]	> 10
> 1	> 10	–	–	COc1cc(NS(C)(=O)=O)cc(-c2cc(-c3ccc(N4CCNCC4)cc3)cnc2N)c1 [CSLP3]	> 100
> 100	> 10	–	–	CCCS(=O)(=O)Nc1cc(-c2cc(-c3ccc(N4CCNCC4)cc3)cnc2N)cc(F)c1OC [CSLP37, N-(5-(2-Amino-5-(4-(piperazin-1-yl)phenyl)pyridin-3-yl)-3-fluoro-2-methoxyphenyl)propane-1-sulfonamide]	> 10
> 1000	> 1000	–	–	COc1cc(-c2cc(-c3ccc(N4CCNCC4)cc3)cnc2N)cc(NS(=O)(=O)c2ccccc2)c1C [CSLP51, N-(5-(2-Amino-5-(4-(piperazin-1-yl)phenyl)pyridin-3-yl)-3-methoxy-2-methylphenyl)benzenesulfonamide]	> 1000
> 1000	> 1000	–	–	COc1cc(-c2cc(-c3ccc(N4CCNCC4)cc3)cnc2N)cc(NS(=O)(=O)C(C)C)c1C [CSLP25, N-(5-(2-Amino-5-(4-(piperazin-1-yl)phenyl)pyridin-3-yl)-3-methoxy-2-methylphenyl)propane-2-sulfonamide]	> 1000
> 1000	> 1000	–	–	CCOc1cc(-c2cc(-c3ccc(N4CCNCC4)cc3)cnc2N)cc(NS(=O)(=O)Cc2ccccc2)c1C [CSLP54, N-(5-(2-Amino-5-(4-(piperazin-1-yl)phenyl)pyridin-3-yl)-3-ethoxy-2-methylphenyl)-1-phenylmethanesulfonamide]	> 1000
> 1000	> 100	–	–	CCCS(=O)(=O)Nc1cc(-c2cc(-c3ccc(N4CCNCC4)cc3)cnc2N)ccc1C [CSLP26, N-(5-(2-Amino-5-(4-(piperazin-1-yl)phenyl)pyridin-3-yl)-2-methylphenyl)propane-1-sulfonamide]	> 1000
> 100	> 10	–	–	CCCS(=O)(=O)Nc1cc(-c2cc(-c3ccc(N4CCNCC4)cc3)cnc2N)cc(C)c1OC [CSLP42, N-(5-(2-Amino-5-(4-(piperazin-1-yl)phenyl)pyridin-3-yl)-2-methoxy-3-methylphenyl)propane-1-sulfonamide]	> 100
